In patent US6110963A, “Aryl-oxo-acetic acids useful in the treatment of insulin resistance and hyperglycemia” (American Home Products Corporation, priority 1999, dated 2000):
Like-named read-outs stand apart in the source and are kept apart here.

Legend:
[1] = target: T1, Human recombinant PTP1B (hPTP1B) (Homo sapiens, UniProt P18031); format: biochemical; settings: for IC50: recombinant PTP1B, malachite green phosphate detection; for inhibition at 2.5 µM: read-out: change of PTP1B activity (percent of phosphatase control) at single concentration
T1 construct: made in house
T1 sequence (P18031 1-435): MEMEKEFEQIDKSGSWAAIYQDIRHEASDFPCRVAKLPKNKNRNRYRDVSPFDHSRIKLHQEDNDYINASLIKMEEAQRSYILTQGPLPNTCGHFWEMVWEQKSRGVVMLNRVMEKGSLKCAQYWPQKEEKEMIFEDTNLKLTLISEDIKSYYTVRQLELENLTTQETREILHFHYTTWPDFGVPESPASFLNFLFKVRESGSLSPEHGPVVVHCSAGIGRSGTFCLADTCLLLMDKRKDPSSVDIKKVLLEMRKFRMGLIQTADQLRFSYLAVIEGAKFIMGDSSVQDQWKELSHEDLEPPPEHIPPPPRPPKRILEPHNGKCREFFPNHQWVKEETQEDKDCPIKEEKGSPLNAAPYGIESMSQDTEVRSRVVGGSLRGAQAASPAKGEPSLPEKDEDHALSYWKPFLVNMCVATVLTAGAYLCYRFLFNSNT

[2] = system: rat hepatic microsomal PTPases; settings: PTPase activity, compound at 50 μM, rat liver microsomes
diabetic (ob/ob) mice = experiment: Blood glucose lowering activity in diabetic (ob/ob) mice; format: in vivo, mouse; settings: 100 mg/Kg; for % Change Glucose from Vehicle: plasma glucose
Text: The procedures used and results obtained are briefly described below.
The non-insulin dependent diabetic (NIDDM) syndrome can be typically characterizes by obesity, hyperglycemia, abnormal insulin secretion, hyperinsulinemia and insulin resistance.
In each test procedure, mice [Male or female ob/ob (C57 B1/6J) and their lean litermates (ob/+ or +/+, Jackson Laboratories) ages 2 to 5 months (10 to 65 g)] of a similar age were randomized according to body weight into 4 groups of 10 mice. The mice were housed 5 per cage and are maintained on normal rodent chow with water ad libitum. Mice received test compound daily by gavage (suspended in 0.5 ml of 0.5% methyl cellulose); dissolved in the drinking water; or admixed in the diet. The dose of compounds given ranges from 2.5 to 200 mg/kg body weight/day. The dose is calculated based on the fed weekly body weight and is expressed as active moiety. […] Control mice received vehicle only.
On the morning of Day 4, 7 or 14 two drops of blood (approximetly 50 ul) were collected into sodium fluoride containing tubes either from the tail vein or after decapitation. For those studies in which the compound was administered daily by gavage the blood samples were collected two hours after compound administration. The plasma was isolated by centrifugation and the concentration of glucose is measured enzymatically on an Abbott V. P. Analyzer.
For each mouse, the percentage change in plasma glucose on Day 4, 7 or 14 is calculated relative to the mean plasma glucose of the vehicle treated mice. Analysis of variance followed by Dunett's Comparison Test (one-tailed) are used to estimate the significant difference between the plasma glucose values from the control group and the individual compound treated groups (CMS SAS Release 5.18).

SMILES | IC50 [1] | % Change from Control [2] | further results
CCCCc1oc2ccccc2c1C(O)c1ccc2cc(O)ccc2c1 (stereo not shown) [Example 1] | 1160 nM | -31% | 
CCCCc1oc2ccccc2c1Cc1ccc2cc(O)ccc2c1 [Example 2] | 1350 nM | -37% | 
CCCCc1oc2ccccc2c1Cc1ccc2c(Br)c(O)ccc2c1 [Example 3, 1-Bromo-6-(2-butyl-benzofuran-3-ylmethyl)-naphthalen-2-ol] | 330 nM | -37% | 
CCCCc1oc2ccccc2c1Cc1ccc2c(Br)c(OCC(=O)O)ccc2c1 [Example 4, [1-Bromo-6-(2-butyl-benzofuran-3-ylmethyl)-naphthalen-2-yloxy]-acetic acid] | 1440 nM | -65% | 
CCCCc1oc2ccccc2c1Cc1ccc2c(Br)c(OC(Cc3ccccc3)C(=O)O)ccc2c1 (stereo not shown) [Example 5, 2-[1-Bromo-6-(2-butyl-benzofuran-3-ylmethyl)-naphthalen-2-yloxy]-3-phenylpropionic acid] | 370 nM | -59% | % Change Glucose from Vehicle (diabetic (ob/ob) mice): -25.6%
CCCCc1oc2ccccc2c1Cc1ccc2c(Br)c(OCc3nnn[nH]3)ccc2c1 [Example 6, 5-[1-Bromo-6-(2-butyl-benzofuran-3-ylmethyl)-naphthalen-2-yloxymethyl]-1H-tetrazole] | 700 nM | -62% | 
CCCCc1oc2ccccc2c1Cc1ccc2c(I)c(O)ccc2c1 [Example 7, 6-(2-Butyl-benzofuran-3-ylmethyl)-1-iodo-naphthalen-2-ol] | 310 nM | -24% | 
CCCCc1oc2ccccc2c1Cc1ccc2c(I)c(OC(Cc3ccccc3)C(=O)O)ccc2c1 (stereo not shown) [Example 8] | 310 nM | -58% | % Change Insulin from Vehicle (diabetic (ob/ob) mice): -33%; % Change Glucose from Vehicle (diabetic (ob/ob) mice): -11%
CCCCc1oc2ccccc2c1C(O)c1ccc2c(Br)c(O)ccc2c1 (stereo not shown) [Example 9, 1-Bromo-6-[(2-butyl-benzofuran-3-yl)-hydroxy-methyl]-naphthalen-2-ol] | 480 nM |  | % Change Insulin from Vehicle (diabetic (ob/ob) mice): -38%
CCCCc1oc2ccccc2c1C(=O)c1ccc2c(Br)c(OCC(=O)O)ccc2c1 [Example 10, [1-Bromo-6-(2-butyl-benzofuran-3-carbonyl)-naphthalen-2-yloxy]-acetic acid] |  | -69% | inhibition at 2.5 µM ([1]; compound at 2.5 uM): 46%
CCCCc1oc2ccccc2c1C(=O)c1ccc2c(Br)c(OC(Cc3ccccc3)C(=O)O)ccc2c1 (stereo not shown) [Example 11, 2-[1-Bromo-6-(2-butyl-benzofuran-3-carbonyl)-naphthalen-2-yloxy]-3-phenylpropionic acid] | 1230 nM | -77% | 
CCCCc1oc2ccccc2c1C(=O)c1ccc2c(Br)c(OCc3nnn[nH]3)ccc2c1 [Example 12, [5-bromo-6-(1H-tetrazol-5-ylmethoxy)-naphthalen-2-yl]-(2-butyl-benzofuran-3-yl)methanone] | 1130 nM | -70% | % Change Insulin from Vehicle (diabetic (ob/ob) mice): 12%; % Change Glucose from Vehicle (diabetic (ob/ob) mice): -24.8%
Oc1ccc2cc(Cc3c(Cc4ccccc4)sc4ccccc34)ccc2c1Br [Example 13, 6-(2-Benzyl-benzo[b]thiophen-3-ylmethyl)-1-bromo-naphthalen-2-ol] | 1040 nM | -37% | 
CCCCc1oc2ccccc2c1C(O)c1ccc(-c2ccc(O)cc2)cc1 (stereo not shown) [Example 14, 4'-[(2-Butyl-benzofuran-3-yl)-hydroxy-methyl]-biphenyl-4-ol] | 230 nM |  | 
CCCCc1oc2ccccc2c1C(=O)c1ccc(-c2ccc(O)cc2)cc1 [Example 15, (2-Butyl-benzofuran-3-yl)-(4'-hydroxy-biphenyl-4-yl)-methanone] |  | -20% | inhibition at 2.5 µM [1]: 53%
CCCCc1oc2ccccc2c1Cc1ccc(-c2ccc(O)cc2)cc1 [Example 16] | 1190 nM | -28% | 
CCCCc1oc2ccccc2c1Cc1ccc(-c2ccc(OCC(=O)O)cc2)cc1 [Example 17] | 1150 nM | -76% | 

SMILES | IC50 [1] | % Change from Control [2] | further results
CCCCc1oc2ccccc2c1Cc1ccc(-c2ccc(OCc3nnn[nH]3)cc2)cc1 [Example 18] | 510 nM |  | 
CCCCc1oc2ccccc2c1C(O)c1ccc(-c2ccc(OCC(=O)O)cc2)cc1 (stereo not shown) [Example 19, {4'-[(2-Butyl-benzofuran-3-yl)-hydroxy-methyl]-biphenyl-4-yloxy}-acetic acid] | 540 nM | -24% | 
CCCCc1oc2ccccc2c1C(O)c1ccc(-c2cc(Br)c(O)c(Br)c2)cc1 (stereo not shown) [Example 20, 3,5-Dibromo-4'-[(2-butyl-benzofuran-3-yl)-hydroxy-methyl]-biphenyl-4-ol] | 1400 nM | -22% | 
Oc1ccc(-c2ccc(C(O)c3c(Cc4ccccc4)sc4ccccc34)cc2)cc1 (stereo not shown) [Example 21, 4'-[(2-Benzyl-benzorblthiophen-3-yl)-hydroxy-methyl]-biphenyl-4-ol] |  |  | inhibition at 2.5 µM ([1]; compound at 2.5 uM): 36%
CCCCc1oc2ccccc2c1C(O)c1ncc(-c2ccc(OC)cc2)o1 (stereo not shown) [Example 22, (2-Butyl-benzofuran-3-yl)-[5-(4-methoxy-phenyl)-oxazole-2-yl]-methanol] |  | -38% | 
CCCCc1oc2ccccc2c1C(=O)c1ncc(-c2ccc(OC)cc2)o1 [Example 23, (2-Butyl-benzofuran-3-yl)-[5-(4-methoxy-phenyl)-oxazole-2-yl]-methanone] |  |  | inhibition at 2.5 µM ([1]; compound at 2.5 uM): 55%
CCCCc1oc2ccccc2c1Cc1ncc(-c2ccc(OC)cc2)o1 [Example 24, 2-(2-Butyl-benzofuran-3-ymethyl)-5-(4-methoxy-phenyl)-oxazole] |  |  | inhibition at 2.5 µM ([1]; compound at 2.5 uM): 35%
CCCCc1oc2ccccc2c1C(=O)c1nc(Br)c(-c2ccc(OC)cc2)o1 [Example 25, [4-Bromo-5-(4-methoxy-phenyl)-oxazol-2-yl]-(2-butyl-benzofuran-3-yl)-methanone] | 1360 nM |  | 
CCCCc1oc2cc(Br)ccc2c1Cc1nc(Br)c(-c2ccc(OC)cc2)o1 [Example 26] | 1240 nM |  | 
CCCCc1oc2ccccc2c1C(Sc1nc2ccccc2s1)c1ccc2cc(O)ccc2c1 (stereo not shown) [Example 27] | 1000 nM |  | 
CCCCc1oc2ccccc2c1C(Sc1nc2ccccc2s1)c1ccc(-c2ccc(O)cc2)cc1 (stereo not shown) [Example 28, 4'-[(2-Butyl-benzofuran-3-yl)-(benzothiazol-2-ylsulfanyl)-methyl]-biphenyl-4-ol] | 1160 nM |  | 
CCCCCCCC(Sc1nc2ccccc2s1)c1cc2ccccc2s1 (stereo not shown) [Example 29, 2-[1-(Benzorblthiophen-2-yl)-octylsulfanyl]-benzothiazole] | 1860 nM | -24% | 
CCCCc1oc2ccccc2c1C(Sc1nc2ccccc2s1)c1ccc(Br)cc1 (stereo not shown) [Example 30, 2-[(4-Bromo-phenyl)-(2-butyl-benzofuran-3-yl)-methylsulfanyl]-benzothiazole] | 580 nM |  | 
CCCCc1oc2ccccc2c1C(Sc1nc2ccccc2s1)c1ccc(Br)c2ccccc12 (stereo not shown) [Example 31, 2-[(4-Bromo-naphthalen-1-yl)-(2-butyl-benzofuran-3-yl)-methylsulfanyl]-benzothiazole] | 590 nM |  | 
CCCCc1oc2ccccc2c1C(Sc1nc2ccccc2s1)c1ccccc1 (stereo not shown) [Example 32] | 1000 nM |  | 
Brc1cc(Cc2ccc3ccccc3c2)cc(Br)c1OCc1nnn[nH]1 [Example 34, 5-[2,6-Dibromo-4-(naphthalen-2-ylmethyl)-phenoxymethyl]-1H-tetrazole] |  |  | % Change Insulin from Vehicle (diabetic (ob/ob) mice): -18%; % Change Glucose from Vehicle (diabetic (ob/ob) mice): -27.8%
